# From patent US7635686B2, “Therapeutically useful triethyleneglycol cholesteryl oligonucleotides” (Bioniche Life Sciences, Inc., priority 2001, dated 2009)
# {TEG-Chol} = cholesteryl attached through a triethylene glycol (TEG) linker
# Columns and labels:
# [1] = tested on: MDA-MB-231 (MDA-231) cells; assay: MATRIGEL outgrowth after 1 hr pre-incubation, MDA-231; assay type: cell-based, human; conditions: MDA-231, 53 μM pre-incubation 1 hr, 3 days on MATRIGEL, FIG. 1 and FIG. 2
# Procedure: (§1) Various in vitro and in vivo assays may be used to evaluate the influence of the extracellular microenvironment on behavior of normal cells and tumor cells. Such assays may employ MATRIGEL® (Becton Dickinson, Franklin Lakes, N.J.), which is a solubilized basement membrane preparation extracted from the Engelbreth-Holm-Swarm murine sarcoma.
# (§2) MCF-7, MDA-MB-231 (MDA-231), Hs578T and Mpanc-96 cells were cultured separately in regular culture medium, trypsinized, and counted. 100×10^3 of MDA-231 cells, 100×10^3 of Hs578T cells, 150×10^3 of MCF-7 cells and 150×10^3 of Mpanc-96 cells were separately pre-incubated for 1 hr at 37° C. in a final concentration of 53 μM of SEQ ID NO:1, 53 μM of SEQ ID NO:5 or RCM, and plated on top of MATRIGEL®-coated plates (MATRIGEL® Basement membrane matrix coated cellware 24-well plate,) for 3 days. Plates were fixed with 10% formalin. Digital photographs of the cells in the 24-well plates were taken using a Nikon Coolpix 990 digital camera (Nikon Corporation, Tokyo, Japan) connected to a Nikon inverted microscope model TMS.
# (§3) MDA-MB-231 (MDA-231) and Hs578T were cultured in regular culture medium, trypsinized and counted. 100×10^3 of MDA-MB-231 cells or 100×10^3 of Hs578T cells, were separately pre-incubated for 1 hr at 37° C. in a final concentration of 53 μM of SEQ ID NO:4, 53 μM of SEQ ID NO:8 or RCM and plated on MATRIGEL®-coated plates for 3 days. Plates were fixed with 10% formalin. Digital photographs of the cells in the 24-well plates were taken using a Nikon Coolpix 990 digital camera (Nikon Corporation, Tokyo, Japan) connected to a Nikon inverted microscope model TMS.
# Hs578T cells [2] = assay: MATRIGEL outgrowth after 1 hr pre-incubation, Hs578T; assay type: cell-based, human; conditions: 53 μM pre-incubation 1 hr, 3 days on MATRIGEL, FIG. 1 and FIG. 2
# Procedure: as §1, §2, §3
# HIG-82 cells = assay: HIG-82 synovial cell proliferation (MTT reduction); assay type: cell-based, rabbit; conditions: 53 μM, 48 hours; for Inhibition of HIG-82 cell proliferation, inhibition (%): MTT
# Procedure: Adherent HIG-82 cells, a synovial cell line, were incubated at 10×10^5 cells/ml for 48 hours with 53 μM (final concentration) of SEQ ID NO:2, SEQ ID NO:3, SEQ ID NO:4, SEQ ID NO:6, SEQ ID NO:7, or SEQ ID NO:8. Cellular proliferation was measured using dimethylthiazol-diphenyl-tetrazolium (MTT) reduction (Mosman et al., J. Immunol. Methods 65:55, 1983). MTT was measured at a wavelength of 570 nm using a multiple spectrophotometer reader (ELX800, Bio-TEK, Instruments Inc., Winooski, Vt.). The percentage of inhibition, calculated as […]
# Hs578T cells [3] = assay: Cell cycle progression in Hs578T multicellular spheroids (PI staining); assay type: cell-based, human; conditions: 53 μM, 72 hrs, FIG. 5
# Procedure: Multicellular spheroids (MS) is an example of a special in vitro assay, in which tumor cells are cultured in a 3-dimensional manner to form a “tumor-like” structure. In this system, there is a reinforcement of cell-cell interactions that mimic microenvironmental conditions of malignant cells in solid tumors in vivo. In this type of assay, no extracellular matrix components are added. Cells cultured in this MS system differ from those in 2-dimensional systems (monolayer culture conditions). Some of these differences are related to structural and functional differentiation of tumor cells, changes in the cell cycle of tumor cells, “multicellular drug resistance”, and changes in the diffusion and penetration of drugs throughout layers of tumor cells (reviewed in Green et al., Anticancer Drug Des. 14:153, 1999).
# About 100×10^3 Hs578T cells per spheroid were cultured in presence of 53 μM final concentration of SEQ ID NO:3, SEQ ID NO:7, 53 μM final concentration of cholesteryl-TEG phosphoramidite (cholTEG) or corresponding control media (regular culture medium (RCM), RCM with the same amount of water (RCMW) as the amount added with the SEQ ID NO:7, and RCM with the same amount of acetonitrile (RCMA) as the amount added with cholesteryl-TEG phosphoramidite). Five spheroids per each experimental condition were cultured for 72 hrs. Afterwards, cell cycle progression was evaluated by propidium iodide (PI) staining (Calbiochem, Novabiochem Corporation, San Diego, Calif.) using a FACScalibur flow cytometer (Becton Dickinson, Franklin Lakes, N.J.). Changes in the percentage of cells in the different phases of the cell cycle were analyzed using MODFIT LT software (Verity Software House Inc).
# Hs578T cells [4] = assay: Cellular proliferation of Hs578T cells (Trypan blue exclusion count); assay type: cell-based, human; conditions: 53 μM
# Procedure: (§4) Either 20×10^3 MDA-MB-231 (MDA-231) or Hs578T cells were plated into individual wells of 24-well plates in regular culture medium (RCM) presence or absence (control) of 53 μM (final concentration) of SEQ ID NO:3, SEQ ID NO:7, 53 μM cholesteryl-TEG phosphoramidite, or corresponding control media (regular culture medium (RCM) for SEQ ID NO:3, RCM with the same amount of water as the amount added with the SEQ ID NO:7, and RCM with the same amount of acetonitrile as the amount added with cholesteryl-TEG phosphoramidite). Cells were cultured for 72 hrs, removed with trypsin and counted with an hemocytometer using the Trypan blue exclusion technique. Results of three independent assays (mean and standard deviation (s.d.) of percentage of changes compared to controls) are shown in Table 9.
# [5] = tested on: MDA-MB-231 (MDA-231) cells; assay: Cellular proliferation of MDA-231 cells (Trypan blue exclusion count); assay type: cell-based, human; conditions: MDA-231, 53 μM
# Procedure: as §4
# EL-4 cells = assay: Apoptosis by phosphatidylserine redistribution (annexin V flow cytometry) in EL-4 cells; assay type: cell-based, murine; conditions: 24 hours; for Percentage of positive cells for phosphatidylserine (cells in apoptosis) in EL-4 cells: untreated cells 7%
# Procedure: (§5) Redistribution of plasma membrane phosphatidylserine is a characteristic of cells undergoing apoptosis (Martin et al., J. Exp. Med., 182:1545, 1995). The redistribution of phosphatidylserine in the plasma membrane during apoptosis was measured by flow cytometry using FITC (fluorescein isothiocyanate)-conjugated annexin V (BD Pharmingen, San Diego, Calif.). MEG-01 cells, a human chronic myelogeneous leukemia cell line positive for the Philadelphia chromosome and having a BCR-ABL gene fusion, were incubated at 2.5×10^5 cells/ml for 48 hours with 5.3, 26.5 and 53.0 μM final concentrations of SEQ ID NO:1, SEQ ID NO:2, SEQ ID NO:5, SEQ ID NO:6 and cholesteryl-TEG phosphoramidite molecule. The percentage of cells in apoptosis after exposure to the SEQ ID NOs:1, 2, 5, 6, or cholesteryl-TEG phosphoramidite treatment is reported in Table 2. The percentage of apoptosis in untreated MEG-01 cells was 12%.
# EL-4 cells, a murine T lymphoma cell line, were incubated at 2.5×10^5 cells/ml for 24 hours with 0.53, 5.3 and 53.0 μM concentrations of SEQ ID NO:3, SEQ ID NO:7 or cholesteryl-TEG phosphoramidite. The percentage of cells in apoptosis after exposure to SEQ ID NO:3, SEQ ID NO:7 or cholesteryl-TEG phosphoramidite treatment is reported in Table 3. The percentage of apoptosis in untreated EL-4 cells was 7%.
# MEG-01 cells = assay: Apoptosis by phosphatidylserine redistribution (FITC-annexin V flow cytometry) in MEG-01 cells; assay type: cell-based, human; conditions: 48 hours; for Percentage of positive cells for phosphatidylserine (cells in apoptosis) in MEG-01 cells: untreated cells 12%
# Procedure: as §5
# MCF-7 cells = assay: Treatment of pre-formed 3-dimensional MCF-7 structures on MATRIGEL; assay type: cell-based, human; conditions: MCF-7, 53 μM, repeated every 3-4 days up to 19-20 days, FIG. 3
# Procedure: MCF-7 cells were cultured in regular culture medium (RCM), trypsinized and counted. 150×10^3 of MCF-7 cells, in wells of 24-well plates coated with 350 μl of MATRIGEL®. After the formation of 3-dimensional structures during 48 hrs without any treatment, the medium was changed and the structures were exposed to a final concentration of 53 μM of SEQ ID NO:3, 53 μM of SEQ ID NO:7, 53 μM of cholesteryl-TEG phosphoramidite, RCM or their respective control media (RCM with water, RCM with DMSO, or RCM with acetonitrile). The treatments were repeated every 3-4 days until a maximum time in culture of 19-20 days. The experiment was repeated three times. Digital photographs of the cells in the 24-well plates were taken using a Nikon Coolpix 990 digital camera connected to a Nikon inverted microscope model TMS.
# [6] = tested on: MDA-MB-231 (MDA-231) cells; assay: Treatment of pre-formed 3-dimensional MDA-231 structures on MATRIGEL; assay type: cell-based, human; conditions: MDA-231, 53 μM, repeated every 3-4 days up to 17-21 days, FIG. 4
# Procedure: The MDA-MB-231 (MDA-231) cells were cultured in regular culture medium, trypsinized and counted. 100×10^3 of MDA-231 cells were plated in regular culture medium (RCM), in wells of 24-well plates coated with 350 μl of MATRIGEL®. After the formation of 3-dimensional structures during 48 hrs without any treatment, the medium was changed, and structures were exposed to a final concentration of 53 μM of SEQ ID NO:3, 53 μM of SEQ ID NO:7, 53 μM of cholesteryl-TEG phosphoramidite, RCM, or their respective control media (RCM with water, RCM with DMSO or RCM with acetonitrile). The treatments were repeated every 3-4 days until a maximum time in culture of 17-21 days. The experiment was repeated three times. Digital photographs of the cells in the 24-well plates were taken using a Nikon Coolpix 990 digital camera connected to a Nikon inverted microscope model TMS.
# [7] = cultured for 3 days, + stimulation, − inhibition, three independent assays
# [8] = translocation of phosphatidylserine, up to 53.0 μM
Compound,Formation of 3-dimensional structures / cell morphology on MATRIGEL [1],Formation of 3-dimensional structures / cell morphology on MATRIGEL (Hs578T cells [2]),Inhibition of proliferation of synovial HIG-82 cells (in words) (HIG-82 cells),"Inhibition of HIG-82 cell proliferation, inhibition (%) (HIG-82 cells)",Cell cycle progression in multicellular spheroids (Hs578T cells [3]),Effect on cellular proliferation (in words) (Hs578T cells [4]; 72 hrs),Percentage of changes in cellular proliferation compared to controls (mean ± s.d.) (Hs578T cells [4]; [7]),Effect on cellular proliferation (in words) ([5]; 72 hrs),"Percentage of changes in cellular proliferation compared to controls (mean ± s.d.) [5, 7]",Percentage of positive cells for phosphatidylserine (cells in apoptosis) in EL-4 cells (EL-4 cells; 0.53 μM),Percentage of positive cells for phosphatidylserine (cells in apoptosis) in EL-4 cells (EL-4 cells; 5.3 μM),Percentage of positive cells for phosphatidylserine (cells in apoptosis) in EL-4 cells (EL-4 cells; 53.0 μM),Induction of apoptosis in EL-4 cells (in words) (EL-4 cells; [8]),Percentage of positive cells for phosphatidylserine (cells in apoptosis) in MEG-01 cells (MEG-01 cells; 5.3 μM),Percentage of positive cells for phosphatidylserine (cells in apoptosis) in MEG-01 cells (MEG-01 cells; 26.5 μM),Percentage of positive cells for phosphatidylserine (cells in apoptosis) in MEG-01 cells (MEG-01 cells; 53.0 μM),Induction of apoptosis in MEG-01 cells (in words) (MEG-01 cells; [8]),Effect on pre-formed 3-dimensional structures on MATRIGEL (MCF-7 cells),Effect on pre-formed 3-dimensional structures on MATRIGEL [6]
"5′ OH-GTG-OH 3′ (listed as DNA, chemistry not fully specified) [SEQ ID NO:4]",did not change the cellular morphology,did not change the cellular morphology,did not inhibit proliferation,−7%,–,–,–,–,–,–,–,–,–,–,–,–,–,–,–
"5′OH-GTG(TEG-cholesteryl) 3′ (3' {TEG-Chol}, sugars by position and backbone not given here) [SEQ ID NO:8, 5′-OH, 3′-TEG cholesteryl synthetic oligonucleotide]",disrupted the growth pattern,disrupted the growth pattern,capacity to inhibit the cellular proliferation,64%,–,–,–,–,–,–,–,–,–,–,–,–,–,–,–
COc1ccc(C(OCC(COCCOCCOCCOCCCNC(=O)O[C@H]2CC[C@@]3(C)C(=CC[C@H]4[C@@H]5CC[C@H]([C@H](C)CCCC(C)C)[C@@]5(C)CC[C@@H]43)C2)OP(OCCC#N)N(C(C)C)C(C)C)(c2ccccc2)c2ccc(OC)cc2)cc1 (some centres unmarked) [cholesteryl-TEG phosphoramidite],–,–,–,–,did not significantly modify cell cycle progression,did not significantly affect cellular proliferation,+13 ± 9.2%,did not significantly affect cellular proliferation,−2.3 ± 15.9%,7%,7%,7%,neither SEQ ID NO:3 nor cholesteryl-TEG phosphoramidite caused apoptosis,12%,12%,12%,inactive,did not affect the 3-dimensional structures,did not affect the 3-dimensional structures
